# According to US11479546B2, “Antimalarial hexahydropyrimidine analogues” (UCB Biopharma SRL, priority 2018, dated 2022):
# Test system: Plasmodium falciparum 3D7
# Assay: P. falciparum 3D7 asexual blood stage assay, Assay Procedure Version 1 (SYBR green readout)
# Assay type: cell-based
# Details: 3D7, Erythrocyte, Version 1 of the assay procedure (no asterisk), 72 h incubation in infected erythrocytes, 10,000 nM to 0.51 nM
# Method in brief: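 Erythrocytes at 5% haematocrit, 0.5% parasitaemia, exposed 72 h at 37° C (1% O2, 3% CO2) to 10-point 3-fold titrations, 10,000–0.51 nM final in 0.5% DMSO. SYBR green in lysis buffer overnight, fluorescence 485/528 nm; % inhibition versus controls, EC50 from 4-parameter fit.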
row,IC50 [nM],Compound
1,243,"C[C@@]1(c2ccc(F)c(Nc3ccc(F)cc3)c2Cl)CC(=O)N(C2CCOCC2)C(=N)N1 [Example 206, (6S)-6-[2-Chloro-4-fluoro-3-(4-fluoroanilino)phenyl]-2-imino-6-methyl-3-(tetrahydro-pyran-4-yl)hexahydropyrimidin-4-one]"
2,659,"Cc1ccc(Nc2c(F)ccc([C@]3(C)CC(=O)N(C4CCOCC4)C(=N)N3)c2Cl)cn1 [Example 207, (6S)-6-{2-Chloro-4-fluoro-3-[(6-methylpyridin-3-yl)amino]phenyl}-2-imino-6-methyl-3-(tetrahydropyran-4-yl)hexahydropyrimidin-4-one]"
